From patent US12642270B2, “Substituted thiophene carboxamides, thiophene carboxylic acids and derivatives thereof” (Bayer Aktiengesellschaft, priority 2019, dated 2026)

experiment: Log P by HPLC on reversed phase columns (EEC directive 79/831 Annex V.A8); type: physicochemical; conditions: LogP method [a]; compounds of formula (I), Table 1.1
Summary of the method: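 Values come from retention times calibrated against alkan-2-ones (3–16 carbons) by linear interpolation, using reversed-phase LC-UV per EEC directive 79/831 Annex V.A8. Acetonitrile gradient 10–95% with 0.1% formic acid [a], 0.001 M ammonium acetate [b] or 0.1% phosphoric acid [c]; several values within one method separated by "+".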

LogP | Structure (SMILES)
2.30^[a] | CCOC(=O)C1(NC(=O)c2cc(C#N)c(Br)s2)CC1 [1.0401]
2.50^[a] | COC(=O)C(NC(=O)c1cc(C#N)c(Br)s1)C1CC1 (stereo not shown) [1.0402]
3.22^[a] | CCOC(=O)C(NC(=O)c1cc(C#N)c(Br)s1)C(C)C (stereo not shown) [1.0403]
3.03^[a] | CCOC(=O)C(CCSC)NC(=O)c1cc(C#N)c(Br)s1 (stereo not shown) [1.0404]
3.48^[a] | CCOC(=O)C(Cc1ccccc1)NC(=O)c1cc(C#N)c(Br)s1 (stereo not shown) [1.0405]
2.22^[a] | COC(=O)CNC(=O)c1sc(Br)c(C#N)c1Br [1.0406]
2.61^[a] | CCOC(=O)CNC(=O)c1sc(Br)c(C#N)c1Br [1.0407]
2.71^[a] | CCOC(=O)C1(NC(=O)c2sc(Br)c(C#N)c2Br)CC1 [1.0408]

same assay, conditions: method marked [a]

LogP | Structure (SMILES)
2.32^[a] | CCOC(=O)C1(NC(=O)c2cc(Cl)c(C#N)s2)CC1 [1.0387]
2.50^[a] | COC(=O)C(NC(=O)c1cc(Cl)c(C#N)s1)C1CC1 (stereo not shown) [1.0388]
3.22^[a] | CCOC(=O)C(NC(=O)c1cc(Cl)c(C#N)s1)C(C)C (stereo not shown) [1.0389]
3.03^[a] | CCOC(=O)C(CCSC)NC(=O)c1cc(Cl)c(C#N)s1 (stereo not shown) [1.0390]
3.48^[a] | CCOC(=O)C(Cc1ccccc1)NC(=O)c1cc(Cl)c(C#N)s1 (stereo not shown) [1.0391]
2.16^[a] | COC(=O)CNC(=O)c1sc(Cl)c(C#N)c1Cl [1.0392]
2.54^[a] | CCOC(=O)CNC(=O)c1sc(Cl)c(C#N)c1Cl [1.0393]
2.69^[a] | CCOC(=O)C1(NC(=O)c2sc(Cl)c(C#N)c2Cl)CC1 [1.0394]
2.97^[a] | COC(=O)C(NC(=O)c1sc(Cl)c(C#N)c1Cl)C1CC1 (stereo not shown) [1.0395]
3.81^[a] | CCOC(=O)C(NC(=O)c1sc(Cl)c(C#N)c1Cl)C(C)C (stereo not shown) [1.0396]
3.52^[a] | CCOC(=O)C(CCSC)NC(=O)c1sc(Cl)c(C#N)c1Cl (stereo not shown) [1.0397]
4.05^[a] | CCOC(=O)C(Cc1ccccc1)NC(=O)c1sc(Cl)c(C#N)c1Cl (stereo not shown) [1.0398]
1.79^[a] | COC(=O)CNC(=O)c1cc(C#N)c(Br)s1 [1.0399]
2.11^[a] | CCOC(=O)CNC(=O)c1cc(C#N)c(Br)s1 [1.0400]

Further lines, the molecule ahead of its results:

Structure (SMILES) | LogP
CCOC(=O)C(C)NC(=O)c1sc(Br)c(Br)c1C(F)(F)F (stereo not shown) [1.0369] | 3.35^[a]
CCOC(=O)C1(NC(=O)c2sc(Br)c(Br)c2C(F)(F)F)CC1 [1.0370] | 3.26^[a]
COC(=O)C(NC(=O)c1sc(Br)c(Br)c1C(F)(F)F)C1CC1 (stereo not shown) [1.0371] | 3.37^[a]
CCOC(=O)C1(NC(=O)c2sc(Br)c(Br)c2C(F)(F)F)CCC1 [1.0372] | 3.67^[a]
CCOC(=O)C(NC(=O)c1sc(Br)c(Br)c1C(F)(F)F)C(C)C (stereo not shown) [1.0373] | 4.09^[a]
COC(=O)C(CC(F)F)NC(=O)c1sc(Br)c(Br)c1C(F)(F)F (stereo not shown) [1.0374] | 3.31^[a]
CCOC(=O)C(CC(C)C)NC(=O)c1sc(Br)c(Br)c1C(F)(F)F (stereo not shown) [1.0375] | 4.38^[a]
CCOC(=O)C(CCSC)NC(=O)c1sc(Br)c(Br)c1C(F)(F)F (stereo not shown) [1.0376] | 3.87^[a]
CCOC(=O)C(Cc1ccccc1)NC(=O)c1sc(Br)c(Br)c1C(F)(F)F (stereo not shown) [1.0377] | 4.31^[a]
COC(=O)CNC(=O)c1cc(C#N)c(Cl)s1 [1.0378] | 1.75^[a]
CCOC(=O)CNC(=O)c1cc(C#N)c(Cl)s1 [1.0379] | 2.08^[a]
CCOC(=O)C1(NC(=O)c2cc(C#N)c(Cl)s2)CC1 [1.0380] | 2.28^[a]
COC(=O)C(NC(=O)c1cc(C#N)c(Cl)s1)C1CC1 (stereo not shown) [1.0381] | 2.47^[a]
CCOC(=O)C(NC(=O)c1cc(C#N)c(Cl)s1)C(C)C (stereo not shown) [1.0382] | 3.20^[a]
CCOC(=O)C(CCSC)NC(=O)c1cc(C#N)c(Cl)s1 (stereo not shown) [1.0383] | 3.01^[a]
CCOC(=O)C(Cc1ccccc1)NC(=O)c1cc(C#N)c(Cl)s1 (stereo not shown) [1.0384] | 3.47^[a]
COC(=O)CNC(=O)c1cc(Cl)c(C#N)s1 [1.0385] | 1.77^[a]
CCOC(=O)CNC(=O)c1cc(Cl)c(C#N)s1 [1.0386] | 2.10^[a]
